The test system of test [1] is rabbit serum obtained by immunizing a rabbit with the SARS-CoV strain Frankfurt 1. The class given is binding. Further details: Binding of a rabbit serum to linear peptides / Binding of a rabbit serum to looped peptides / Rabbit serum linear peptides / Rabbit serum looped peptides / Binding of a rabbit serum to linear peptides of protein N of SARS-CoV Urbani (Rabbit serum linear peptides) / Binding of a rabbit serum to looped/cyclic peptides of protein N of SARS-CoV Urbani (Rabbit serum looped peptides): unit not given here.

The subject of test [2] is antibodies in sera from SARS patients (sera 1a, 1b, 2, 6, 37, 62, London, SARS-yellow, SARS-green). The class given is binding, human. The arrangement: Binding of serum 6 to linear peptides of protein X1 of SARS-CoV Urbani / Binding of serum 37 to linear peptides of protein X1 of SARS-CoV Urbani / Binding of serum 6 to looped/cyclic peptide (PEPSCAN-ELISA) / Binding of serum 37 to looped/cyclic peptide (PEPSCAN-ELISA) / Binding of serum 37 to looped/cyclic peptides of protein X1 of SARS-CoV Urbani / Binding of serum 6 to linear peptides of protein X2 / Binding of serum 37 to linear peptides of protein X2 / Binding of serum 37 to looped/cyclic peptides of protein X2 of SARS-CoV Urbani / Binding of serum 6 to linear peptides of protein M of SARS-CoV Urbani / Binding of serum 37 to linear peptides of protein M of SARS-CoV Urbani / Binding of serum 6 to looped/cyclic peptides of protein M of SARS-CoV Urbani / Binding of serum 37 to looped/cyclic peptides of protein M of SARS-CoV Urbani / Binding of serum 6 to linear peptides of protein X3 of SARS-CoV Urbani / Binding of serum 37 to linear peptides of protein X3 of SARS-CoV Urbani / Binding of serum 37 to looped/cyclic peptides of protein X3 of SARS-CoV Urbani / Binding of serum 6 to linear peptides of protein X4 of SARS-CoV Urbani / Binding of serum 37 to linear peptides of protein X4 of SARS-CoV Urbani / Binding of serum 37 to looped/cyclic peptides of protein X4 of SARS-CoV Urbani / Binding of serum 6 to linear peptides of protein X5 of SARS-CoV Urbani / Binding of serum 37 to linear peptides of protein X5 of SARS-CoV Urbani / Binding of serum 37 to looped/cyclic peptides of protein X5 of SARS-CoV Urbani / Binding of serum 6 to linear peptides of protein N of SARS-CoV Urbani / Binding of serum 37 to linear peptides of protein N of SARS-CoV Urbani / Binding of serum 6 to linear peptide (PEPSCAN-ELISA) / Binding of serum 1a to looped/cyclic peptides of protein N of SARS-CoV Urbani / Binding of serum 1b to looped/cyclic peptides of protein N of SARS-CoV Urbani / Binding of serum 2 to looped/cyclic peptides of protein N of SARS-CoV Urbani / Binding of serum 6 to looped/cyclic peptides of protein N of SARS-CoV Urbani / Binding of serum 37 to looped/cyclic peptides of protein N of SARS-CoV Urbani / Binding of serum 62 to looped/cyclic peptides of protein N of SARS-CoV Urbani / Binding of serum London to looped/cyclic peptides of protein N of SARS-CoV Urbani / Binding of serum SARS-green to looped/cyclic peptides of protein N of SARS-CoV Urbani: unit not given here.

Test [3] concerns control sera (pooled serum of ten healthy LUMC hospital workers; commercial negative donor pooled serum from the Dutch bloodbank). The class given is binding, human. The arrangement: Binding of Control serum LUMC to linear peptides / Binding of Control serum Blood-bank to linear peptides / Binding of Control serum LUMC to looped peptides / Binding of Control Serum Blood-Bank to Looped peptides / Binding of Control serum LUMC to linear peptides of the protein M of SARS-CoV Urbani / Binding of Control serum Blood-bank to linear peptides of the protein M of SARS-CoV Urbani / Binding of Control serum LUMC to looped peptides of the protein M of SARS-CoV Urbani / Binding of Control Serum Blood-Bank to Looped peptides of the protein M of SARS-CoV Urbani: unit not given here.

Turning to FLYLYALIYFLQCIN, in test [1], the “Binding of a rabbit serum to linear peptides” value was determined as 0.1 and the “Binding of a rabbit serum to looped peptides” value was found to be 0.4. Moreover, in test [2], the “Binding of serum 1a to linear peptides of protein X1 of SARS-CoV Urbani” value came to 0.7, the “Binding of serum 1a to looped/cyclic peptide (PEPSCAN-ELISA)” value was found to be 0.4, the “Binding of serum 1b to linear peptides of protein X1 of SARS-CoV Urbani” value came to 0.5 and the “Binding of serum 1b to looped/cyclic peptide (PEPSCAN-ELISA)” value came to 0.3. Besides, in test [2], the “Binding of serum 2 to linear peptides of protein X1 of SARS-CoV Urbani” value stood at 0.5, the “Binding of serum 2 to looped/cyclic peptide (PEPSCAN-ELISA)” value is given as 0.3, the “Binding of serum 6 to linear peptides of protein X1 of SARS-CoV Urbani” value came out at 0.4 and the “Binding of serum 6 to looped/cyclic peptide (PEPSCAN-ELISA)” value is given as 0.2. Moreover, in test [2], the “Binding of serum 37 to linear peptides of protein X1 of SARS-CoV Urbani” value was determined as 0.5, the “Binding of serum 37 to looped/cyclic peptide (PEPSCAN-ELISA)” value stood at 0.4, the “Binding of serum 62 to linear peptides of protein X1 of SARS-CoV Urbani” value is on record as 0.6 and the “Binding of serum 62 to looped/cyclic peptide (PEPSCAN-ELISA)” value stood at 0.4. Also, in test [2], the “Binding of serum London to linear peptides of protein X1 of SARS-CoV Urbani” value came out at 0.2, the “Binding of serum London to looped/cyclic peptide (PEPSCAN-ELISA)” value amounted to 0.2, the “Binding of serum SARS-green to linear peptides of protein X1 of SARS-CoV Urbani” value is 0.2 and the “Binding of serum SARS-green to looped/cyclic peptide (PEPSCAN-ELISA)” value is listed as 0.2. For the same sequence, in test [2], the “Binding of serum SARS-yellow to linear peptides of protein X1 of SARS-CoV Urbani” value was found to be 0.5 and the “Binding of serum SARS-yellow to looped/cyclic peptide (PEPSCAN-ELISA)” value stood at 0.3. Also, in test [3], the “Binding of Control Serum Blood-Bank to Looped peptides” value is given as 0.5, the “Binding of Control serum Blood-bank to linear peptides” value turned out to be 0.5, the “Binding of Control serum LUMC to linear peptides” value is listed as 0.5 and the “Binding of Control serum LUMC to looped peptides” value is given as 0.4.
In the case of FMRFFTLGSITAQPV, in test [1], the “Binding of a rabbit serum to linear peptides” value came to 0.3 and the “Binding of a rabbit serum to looped peptides” value is given as 0.4. In test [2], the “Binding of serum 1a to linear peptides of protein X1 of SARS-CoV Urbani” value was 0.8, the “Binding of serum 1a to looped/cyclic peptide (PEPSCAN-ELISA)” value was 0.5, the “Binding of serum 1b to linear peptides of protein X1 of SARS-CoV Urbani” value is 0.6 and the “Binding of serum 1b to looped/cyclic peptide (PEPSCAN-ELISA)” value worked out at 0.3. Also, in test [2], the “Binding of serum 2 to linear peptides of protein X1 of SARS-CoV Urbani” value came to 0.8, the “Binding of serum 2 to looped/cyclic peptide (PEPSCAN-ELISA)” value was determined as 0.4, the “Binding of serum 6 to linear peptides of protein X1 of SARS-CoV Urbani” value amounted to 0.5 and the “Binding of serum 6 to looped/cyclic peptide (PEPSCAN-ELISA)” value came to 0.4. In addition, in test [2], the “Binding of serum 37 to linear peptides of protein X1 of SARS-CoV Urbani” value came to 0.7, the “Binding of serum 37 to looped/cyclic peptide (PEPSCAN-ELISA)” value is given as 0.5, the “Binding of serum 62 to linear peptides of protein X1 of SARS-CoV Urbani” value was determined as 0.7 and the “Binding of serum 62 to looped/cyclic peptide (PEPSCAN-ELISA)” value amounted to 0.5. Moreover, in test [2], the “Binding of serum London to linear peptides of protein X1 of SARS-CoV Urbani” value stood at 0.3, the “Binding of serum London to looped/cyclic peptide (PEPSCAN-ELISA)” value is reported as 0.2, the “Binding of serum SARS-green to linear peptides of protein X1 of SARS-CoV Urbani” value is given as 0.3 and the “Binding of serum SARS-green to looped/cyclic peptide (PEPSCAN-ELISA)” value came out at 0.2. Moreover, in test [2], the “Binding of serum SARS-yellow to linear peptides of protein X1 of SARS-CoV Urbani” value was found to be 0.7 and the “Binding of serum SARS-yellow to looped/cyclic peptide (PEPSCAN-ELISA)” value was 0.3. For the same sequence, in test [3], the “Binding of Control Serum Blood-Bank to Looped peptides” value came to 0.6, the “Binding of Control serum Blood-bank to linear peptides” value is recorded as 0.7, the “Binding of Control serum LUMC to linear peptides” value was determined as 0.7 and the “Binding of Control serum LUMC to looped peptides” value was determined as 0.6.
Consider FQFICNLLLLFVTIY, for which, in test [1], the “Binding of a rabbit serum to linear peptides” value stood at 0.9 and the “Binding of a rabbit serum to looped peptides” value is recorded as 0.0. For the same sequence, in test [2], the “Binding of serum 1a to linear peptides of protein X1 of SARS-CoV Urbani” value is 0.6, the “Binding of serum 1a to looped/cyclic peptide (PEPSCAN-ELISA)” value stood at 0.2, the “Binding of serum 1b to linear peptides of protein X1 of SARS-CoV Urbani” value amounted to 0.5 and the “Binding of serum 1b to looped/cyclic peptide (PEPSCAN-ELISA)” value is recorded as 0.0. For the same sequence, in test [2], the “Binding of serum 2 to linear peptides of protein X1 of SARS-CoV Urbani” value was 0.5, the “Binding of serum 2 to looped/cyclic peptide (PEPSCAN-ELISA)” value is 0.0, the “Binding of serum 6 to linear peptides of protein X1 of SARS-CoV Urbani” value worked out at 0.3 and the “Binding of serum 6 to looped/cyclic peptide (PEPSCAN-ELISA)” value came to 0.2. Further, in test [2], the “Binding of serum 37 to linear peptides of protein X1 of SARS-CoV Urbani” value came to 0.5, the “Binding of serum 37 to looped/cyclic peptide (PEPSCAN-ELISA)” value was determined as 0.0, the “Binding of serum 62 to linear peptides of protein X1 of SARS-CoV Urbani” value came out at 0.5 and the “Binding of serum 62 to looped/cyclic peptide (PEPSCAN-ELISA)” value was 0.2. Further, in test [2], the “Binding of serum London to linear peptides of protein X1 of SARS-CoV Urbani” value came to 0.2, the “Binding of serum London to looped/cyclic peptide (PEPSCAN-ELISA)” value was 0.1, the “Binding of serum SARS-green to linear peptides of protein X1 of SARS-CoV Urbani” value was found to be 0.1 and the “Binding of serum SARS-green to looped/cyclic peptide (PEPSCAN-ELISA)” value is 0.4. Moreover, in test [2], the “Binding of serum SARS-yellow to linear peptides of protein X1 of SARS-CoV Urbani” value worked out at 0.5 and the “Binding of serum SARS-yellow to looped/cyclic peptide (PEPSCAN-ELISA)” value amounted to 0.0. In addition, in test [3], the “Binding of Control Serum Blood-Bank to Looped peptides” value is reported as 0.4, the “Binding of Control serum Blood-bank to linear peptides” value is 0.5, the “Binding of Control serum LUMC to linear peptides” value was 0.5 and the “Binding of Control serum LUMC to looped peptides” value is given as 0.3.
Consider FQVTIAEILIIIMRT, for which, in test [1], the “Rabbit serum linear peptides” value came out at 0.2 and the “Rabbit serum looped peptides” value stood at 0.3. Further, in test [2], the “Binding of serum 1a to linear peptides of protein X3 of SARS-CoV Urbani” value is reported as 0.7, the “Binding of serum 1a to looped/cyclic peptides of protein X3 of SARS-CoV Urbani” value came out at 0.5, the “Binding of serum 1b to linear peptides of protein X3 of SARS-CoV Urbani” value is reported as 0.3 and the “Binding of serum 1b to looped/cyclic peptides of protein X3 of SARS-CoV Urbani” value worked out at 0.2. In test [2], the “Binding of serum 2 to linear peptides of protein X3 of SARS-CoV Urbani” value was 0.6, the “Binding of serum 2 to looped/cyclic peptides of protein X3 of SARS-CoV Urbani” value turned out to be 0.5, the “Binding of serum 6 to linear peptides of protein X3 of SARS-CoV Urbani” value worked out at 0.6 and the “Binding of serum 6 to looped/cyclic peptides of protein X3 of SARS-CoV Urbani” value was determined as 0.3. For the same sequence, in test [2], the “Binding of serum 37 to linear peptides of protein X3 of SARS-CoV Urbani” value stood at 0.3, the “Binding of serum 37 to looped/cyclic peptides of protein X3 of SARS-CoV Urbani” value turned out to be 0.6, the “Binding of serum 62 to linear peptides of protein X3 of SARS-CoV Urbani” value turned out to be 0.5 and the “Binding of serum 62 to looped/cyclic peptides of protein X3 of SARS-CoV Urbani” value stood at 0.4. For the same sequence, in test [2], the “Binding of serum London to linear peptides of protein X3 of SARS-CoV Urbani” value came to 0.7, the “Binding of serum London to looped/cyclic peptides of protein X3 of SARS-CoV Urbani” value came out at 0.2, the “Binding of serum SARS-green to linear peptides of protein X3 of SARS-CoV Urbani” value worked out at 0.5 and the “Binding of serum SARS-green to looped/cyclic peptides of protein X3 of SARS-CoV Urbani” value came out at 0.2. Also, in test [2], the “Binding of serum SARS-yellow to linear peptides of protein X3 of SARS-CoV Urbani” value amounted to 1.1 and the “Binding of serum SARS-yellow to looped/cyclic peptides of protein X3 of SARS-CoV Urbani” value was 0.6. In addition, in test [3], the “Binding of Control Serum Blood-Bank to Looped peptides of the protein X3 of SARS-CoV Urbani” value was determined as 0.7, the “Binding of Control serum Blood-bank to linear peptides of the protein X3 of SARS-CoV Urbani” value was found to be 0.8, the “Binding of Control serum LUMC to linear peptides of the protein X3 of SARS-CoV Urbani” value turned out to be 0.4 and the “Binding of Control serum LUMC to looped peptides of the protein X3 of SARS-CoV Urbani” value amounted to 0.6.

These data come from patent US20070128217A1 (priority 2003, published 2007).
